For this assay, the target named is THB2 (Chlamydomonas reinhardtii, UniProt R9RZJ6). The assay can be described thus: UV-visible absorption. In kind it is binding. Particulars: Fe(III) heme.

This passage reports UV-visible absorption results from PMC6214630 (Biochimica et biophysica acta. General subjects, 2018).

As to `CC(=O)O` [acetate], the UV-visible absorption result is “this protein, like THB1 and a small number of TrHbs”.
Consider `c1c[nH]cn1` [imidazole], for which the UV-visible absorption entry (excess imidazole) is listed as “addition of excess imidazole to our preparations of THB2 nearly eliminates the discrepancies”.
